Data: publication PMC11219871, “Epigenetic-based differentiation therapy for Acute Myeloid Leukemia” (Nature Communications, 2024)
Where “and” joins values, the source holds several entries; their conditions need not be identical. Identical values can stand only once.

Assays:
MOLM-13 = experiment: Differentiation-apoptosis assay, CD11b / annexin-V / Sytox Green / myeloid markers flow cytometry; assay type: cell-based, human; conditions: MOLM-13 cell line; replicates 1-3 (Figure 2A)
Outline: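 Differentiation and apoptosis were read by flow cytometry after 15 min dark staining at room temperature with APC-CD11b plus FITC annexin-V, 1 × 10^6 cells/mL in binding buffer. Myeloid markers CD13, HLA-DR and CD14 were stained in separate runs for 30 min, followed by lysis and washing.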

[1] = system: primary AML patient samples; experiment: Differentiation assay, CD11b flow cytometry in primary samples; assay type: cell-based, human; conditions: for CD11b-positive cells (%): daily 48 h
Description: (§1) Next, the cells were washed twice with phosphate-buffered saline (PBS) and resuspended in 1X Binding Buffer at a concentration of 1 × 10^6 cells/mL. An 8-µL aliquot of APC-CD11b (BD Pharmingen, Franklin Lakes, NJ, USA) and 1 µL of FITC annexin-V (AV) (BD Pharmingen, Franklin Lakes, NJ, USA) antibodies were added and incubated for 15 min at room temperature in the dark. Finally, after the addition of 400 µL of 1X Binding Buffer to each tube, samples were collected on a BD FACSCanto flow cytometer (Becton Dickinson, San Jose, CA, USA) and analyzed using FlowJo software.
Peripheral blood (PB) specimens were obtained from preliminarily diagnosed AML patients who had not received any treatment before specimens were collected. All patients gave informed consent for their participation in this study, which was approved by the Clinical Research Ethics Committee of Clínica Universidad de Navarra. Written informed consent was obtained from each participant. PB was mixed with an ammonium chloride-potassium (ACK) buffer lysis (0.15 mol/L NH4Cl, 10 mmol/L KHCO3, 0.1 mmol/L ethylenediaminetetraacetic acid, pH 7.2) at a 1:2 volume ratio by gentle inversion, incubated for 10 min and centrifuged at 200 g for 10 min. The cell pellet was washed twice with PBS and finally resuspended in EGM2 medium (Cambrex Bioscience, Walkersville, MD). EGM2 contains 2% fetal calf serum, hydrocortisone, heparin, antibiotics, epidermal growth factor, human fibroblast growth factor, insulin-like growth factor, vascular endothelial growth factor, and ascorbic acid. The cells were plated at 1 × 10^6 cells/mL and treated daily with 200 and 500 nM of CM-444 and CM-1758 for 48 h. Next, the differentiation assay was performed as described above.

ML-2 = experiment: Differentiation-apoptosis assay, CD11b / annexin-V / Sytox Green / myeloid markers flow cytometry; assay type: cell-based, human; conditions: ML-2 cell line; replicates 1-3 (Figure 2A)
Description: as §1
For the rest of experiments, the mix of antibodies (2 µL of BV786-CD13, Cat No, 744748 BD; 1 µL of diluted 1:10 antibody of PB-HLADR, Cat No 307633, Biolegend; 5 µL of APCH7-CD14, Cat No 641394, BD) was added to 10 µL of Brilliant Stain Buffer Plus (Becton Dickinson, San Jose, CA, USA). Then, 1 million cells (volume of 250 µL) were added and incubated for 30 min at room temperature in darkness. After 10 min incubation at room temperature with 2 mL of FACSLysing 1X, cells were centrifuged at 540 g for 5 min and washed twice with FACSBuffer. Finally, after centrifugation at 540 g for 5 min cells were resuspended in FACSBuffer.

TF-1 = experiment: Differentiation assay, CD11b / annexin-V flow cytometry; assay type: cell-based; conditions: TF-1 cell line; replicates 1-3 (Figure 2A);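 also: daily treatment at a GI50-based fraction of each compound's GI50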
Description: as §1

HEL = experiment: as above; assay type: cell-based; conditions: HEL cell line; replicates 1-3 (Figure 2A)
Description: as §1

OCI-AML2 = experiment: as above; assay type: cell-based; conditions: OCI-AML-2 cell line; replicates 1-3 (Figure 2A)
Description: as §1

M-O7e = experiment: as above; assay type: cell-based; conditions: MO7e cell line; replicates 1-3 (Figure 2A);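 also: daily treatment at a GI50-based fraction of each compound's GI50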
Description: as §1

THP-1 = experiment: as above; assay type: cell-based; conditions: THP-1 cell line; replicates 1-3 (Figure 2A)
Description: as §1

KASUMI-1 = experiment: as above; assay type: cell-based; conditions: KASUMI-1 cell line; replicates 1-3 (Figure 2A);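 also: daily treatment at a GI50-based fraction of each compound's GI50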
Description: as §1

UT-7 = experiment: as above; assay type: cell-based; conditions: UT7 cell line; replicates 1-3 (Figure 2A)
Description: as §1

NB-4 = experiment: as above; assay type: cell-based
Description: as §1

GF-D8 = experiment: as above; assay type: cell-based; conditions: GF-D8 cell line; replicates 1-3 (Figure 2A);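 also: daily treatment at a GI50-based fraction of each compound's GI50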
Description: as §1

MONO-MAC-6 = experiment: as above; assay type: cell-based; conditions: MONOMAC-6 cell line; replicates 1-3 (Figure 2A)
Description: as §1

OCI-AML3 = experiment: as above; assay type: cell-based; conditions: OCI-AML-3 cell line; replicates 1-3 (Figure 2A)
Description: as §1

Question: What does the source list for `CC1=C(/C=C/C(C)=C/C=C/C(C)=C/C(=O)O)C(C)(C)CCC1` [ATRA, all-trans retinoic acid, reference compound]?
Answer: CD11b (%) (MOLM-13): 26.9% and 23.1% and 27.34%; CD11b (%) ([1]; primary AML patient sample 1 (Figure 2C)): 26.1%; CD11b (%) ([1]; primary AML patient sample 2 (Figure 2C)): 17.45%; CD11b (%) ([1]; primary AML patient sample 3 (Figure 2C)): 10.26%; CD11b (%) ([1]; primary AML patient sample 4 (Figure 2C)): 25.36%; CD11b (%) ([1]; primary AML patient sample 5 (Figure 2C)): 15.2%; CD11b (%) ([1]; primary AML patient sample 6 (Figure 2C)): 16.3%; CD11b (%) ([1]; primary AML patient sample 7 (Figure 2C)): 29.3%; CD11b (%) ([1]; primary AML patient sample 8 (Figure 2C)): 13.25%; CD11b-positive cells (%) ([1]; sample AML-1, 2 µM): 26.1%; CD11b-positive cells (%) ([1]; sample AML-2, 2 µM): 17.5%; CD11b-positive cells (%) ([1]; sample AML-3, 2 µM): 10.3%; CD11b-positive cells (%) ([1]; sample AML-4, 2 µM): 25.4%; CD11b-positive cells (%) ([1]; sample AML-5, 2 µM): 15.2%; CD11b-positive cells (%) ([1]; sample AML-6, 2 µM): 16.3%; CD11b-positive cells (%) ([1]; sample AML-7, 2 µM): 29.3%; CD11b-positive cells (%) ([1]; sample AML-8, 2 µM): 13.3%; CD11b (%) (ML-2): 5.2% and 4.2% and 6.05%; CD11b (%) (TF-1): 36.7% and 30.4% and 33.4%; CD11b (%) (HEL): 1.5% and 0.9% and 3.54%; CD11b (%) (OCI-AML2): 15.2% and 20.2% and 14.1%; CD11b (%) (M-O7e): 0.25% and 2.3% and 4.5%; CD11b (%) (THP-1): 48.6% and 40.2% and 38.7%; CD11b (%) (KASUMI-1): 1.2% and 9.5% and 4.6%; CD11b (%) (UT-7): 5.9% and 6.4% and 10.05%; CD11b (%) (NB-4; NB4 cell line, replicates 1-3 (Figure 2A)): 89.2% and 76.4% and 74.85%; differentiation (CD11b) (NB-4; NB-4, daily 25% GI50, 48 h): induced differentiation; CD11b (%) (GF-D8): 5.2% and 12.5% and 12.9%; CD11b (%) (MONO-MAC-6): 10.8% and 15.4% and 11.3%; CD11b (%) (OCI-AML3): 19.3% and 12.4% and 11.8%
